Test results from patent US7749486B2 (Hoffmann-La Roche Inc., priority 2006, dated 2010).

Legend:
LOX-GFP cells = assay: LOX-GFP peritoneal (ascites) model; assay type: in vivo, Nu/Nu mice
Description: Human melanoma LOX-GFP cells, prepared in accordance with the procedure of Example 3, were maintained in RPMI 1640 medium plus 10% FBS, and 1% Geneticin (G418).
Mice were euthanized, and then a small incision was made along the midline of the abdomen through the skin and peritoneum. A glass Pasteur pipet was utilized to aspirate and remove ascites fluid from the peritoneum, and the ascites was transferred to a 15 ml tube. 3 ml saline was used to rinse the peritoneal cavity, and all of the saline was recovered and transferred into the 15 ml tube containing the ascites fluid. The ascites cell suspension was filtered through a 40 μm nylon filter to obtain a single cell suspension and centrifuged at 1500 rpm for 10 min. The supernatant was removed, and the cell pellet was resuspended in 2 ml of fresh saline. 0.1 ml from each sample was transferred into a 96 well plate to evaluate cell number (reported as relative fluorescence units) utilizing an Acumen Explorer.

LOX-GFP-LM cells = assay: LOX-GFP-LM experimental metastasis model (lung homogenate fluorescence and survival); assay type: in vivo, SCID beige mice; conditions: for TGI % At day 26 (tumor growth inhibition relative to Vehicle control group) / RFU (mean ± SD) of lung homogenate / ILS % (increased lifetime-span) / 50% survival days / TGI % At day 25 (tumor growth inhibition relative to Vehicle control group): bid
Description: Female SCID beige mice were injected iv via the tail vein with 2 million cells in a volume of 200 μl serum free RPMI1640, randomized into groups, and treated as shown in Tables 6 and 7 with a variety of doses and/or dose schedules. […] The remaining mice from each group were monitored for survival benefit until they were moribund.
Two parameters were assessed for quantitative evaluation of anti-metastatic efficacy: 1) Fluorescence intensity of lung homogenates and 2) Survival.
5 mice per treatment group were removed from the study at Day 25 or 26 for evaluation of lung metastatic tumor burden. Mice were euthanized, and lungs were removed, placed in 3 ml saline, and homogenized. 0.2 ml of lung homogenate was transferred to a 96 well plate, and fluorescence was read using Acumen Explorer. […] Fluorescence was reported in relative fluorescence units (RFU). […] Statistical analysis was determined by Student-test or Mann-Whitney U test, and statistic differences between groups were considered to be significant when the probability value (p) was ≦0.05.
Survival represented overall metastatic status either due to lung metastasis or metastasis to other organs. Moribundity due to labored breathing or hind limb paralysis was monitored and recorded as the surrogate endpoint for survival. For survival assessment, results were plotted as the percentage survival against days after tumor implant. The Increased lifetime-span (% ILS) was calculated as: ILS %=100×[(median survival day of treated group−median survival day of control group)/median survival day of control group]. Median survival or (50% survival time) was determined utilizing Kaplan Meier survival analysis. […] Differences in survival were analyzed by the log-rank test. Statistic differences between groups were considered to be significant when the probability value (p) was ≦0.05.

[1] = 25, 50, 100 mg/kg po bid, 6 doses (Days 4, 5 & 6), ascites harvest Day 7

SMILES: COc1ccc(C2=N[C@@H](c3ccc(Cl)cc3)[C@@H](c3ccc(Cl)cc3)N2C(=O)N2CCNC(=O)C2)c(OC(C)C)c1 (stereo in doubt) [Compound D, 4-[(4S,5R)-4,5-Bis-(4-chloro-phenyl)-2-(2-isopropoxy-4-methoxy-phenyl)-4,5-dihydro-imidazole-1-carbonyl]-piperazin-2-one]
- LOX-GFP ascites growth (LOX-GFP cells; [1]): inhibited LOX-GFP ascites growth at several doses
- dose dependence of LOX-GFP ascites growth inhibition (LOX-GFP cells; [1]): not dose-dependent
- TGI % At day 26 (tumor growth inhibition relative to Vehicle control group) (LOX-GFP-LM cells; 200 mg/kg po, Day 3-21): 96.2%
- RFU (mean ± SD) of lung homogenate (LOX-GFP-LM cells; 200 mg/kg po, Day 3-21, lungs at day 26): 2359191 ± 526586 RFU
- ILS % (increased lifetime-span) (LOX-GFP-LM cells; 200 mg/kg po, Day 3-d21): 29%
- 50% survival days (LOX-GFP-LM cells; 200 mg/kg po, Day 3-d21, Vehicle 28 days): 36 days
- TGI % At day 26 (tumor growth inhibition relative to Vehicle control group) (LOX-GFP-LM cells; 200 mg/kg po, Day −1-7): 66.0%
- RFU (mean ± SD) of lung homogenate (LOX-GFP-LM cells; 200 mg/kg po, Day −1-7, lungs at day 26): 21092887 ± 10460489 RFU
- TGI % At day 26 (tumor growth inhibition relative to Vehicle control group) (LOX-GFP-LM cells; 200 mg/kg po, Day −1-21): 78.7%
- RFU (mean ± SD) of lung homogenate (LOX-GFP-LM cells; 200 mg/kg po, Day −1-21, lungs at day 26): 13230372 ± 11960417 RFU
- ILS % (increased lifetime-span) (LOX-GFP-LM cells; 200 mg/kg po, Day −1-d7): 0%
- 50% survival days (LOX-GFP-LM cells; 200 mg/kg po, Day −1-d7, Vehicle 28 days): 28 days
- ILS % (increased lifetime-span) (LOX-GFP-LM cells; 200 mg/kg po, Day −1-d21): 10.7%
- 50% survival days (LOX-GFP-LM cells; 200 mg/kg po, Day −1-d21, Vehicle 28 days): 31 days
- anti-metastatic activity as assessed by fluorescence intensity of lung homogenates (LOX-GFP-LM cells; late intervention (Dosed Day 3 through 23) as compared to Vehicle): superior anti-metastatic activity

SMILES: COc1ccc(F)c(F)c1C(=O)c1cnc(NC2CCN(S(C)(=O)=O)CC2)nc1N [Compound A, [4-Amino-2-(1-methanesulfonyl-piperidin-4-ylamino)-pyrimidin-5-yl]-(2,3-difluoro-6-methoxy-phenyl)-methanone]
- LOX-GFP ascites cell growth (LOX-GFP cells; Compound A 40 mg/kg po, 2 doses (Days 5 & 6), ascites harvest Day 7): reduced cell growth
- LOX-GFP ascites cell growth (LOX-GFP cells; Compound A 40 mg/kg po, 3 doses (Days 4, 5 & 6), ascites harvest Day 7): reduced cell growth maximally
- LOX-GFP ascites cell growth (LOX-GFP cells; Compound A 40 mg/kg po, single dose (Day 6), ascites harvest Day 7): did not inhibit cell growth

SMILES: COc1ccc(C2=NC(c3ccc(Cl)cc3)C(c3ccc(Cl)cc3)N2C(=O)N2CCNC(=O)C2)c(OC(C)C)c1 (stereo not drawn) [Compound B, 4-[4,5-Bis-(4-chloro-phenyl)-2-(2-isopropoxy-4-methoxy-phenyl)-4,5-dihydro-imidazole-1-carbonyl]-piperazin-2-one]
- LOX-GFP ascites growth (LOX-GFP cells; 40 mg/kg sc, 6 doses, ascites harvest Day 8): demonstrated inhibitory effects on LOX-GFP ascites growth

SMILES: CCOc1ccnc2ccc(/C=C3\SC(N[C@@H](CO)c4ccccc4)=NC3=O)cc12 [Compound C, 5-(4-Ethoxy-quinolin-6-ylmeth-(Z)-ylidine)-2-(2-hydroxy-1-(R)-phenyl-ethylamino)-thiazol-4-one]
- LOX-GFP ascites growth (LOX-GFP cells; 200 mg/kg po bid, 12 doses, ascites harvest Day 8): demonstrated inhibitory effects on LOX-GFP ascites growth

SMILES: Cc1[nH]nc2c1N=C(c1ccccc1Cl)c1cc(N)ccc1N2 [Compound E]
- TGI % At day 25 (tumor growth inhibition relative to Vehicle control group) (LOX-GFP-LM cells; 5 mg/kg po, Day 3-23): 82.3%
- RFU (mean ± SD) of lung homogenate (LOX-GFP-LM cells; 5 mg/kg po, Day 3-23, lungs at day 25): 8618508 ± 3198528 RFU
- ILS % (increased lifetime-span) (LOX-GFP-LM cells; 5 mg/kg po, Day 3-d23): 16.7%
- 50% survival days (LOX-GFP-LM cells; 5 mg/kg po, Day 3-d23, Vehicle 24 days): 28 days
- TGI % At day 25 (tumor growth inhibition relative to Vehicle control group) (LOX-GFP-LM cells; 5 mg/kg po, Day −1-7): −5.9%
- RFU (mean ± SD) of lung homogenate (LOX-GFP-LM cells; 5 mg/kg po, Day −1-7, lungs at day 25): 51670506 ± 29321586 RFU
- TGI % At day 25 (tumor growth inhibition relative to Vehicle control group) (LOX-GFP-LM cells; 5 mg/kg po, Day −1-23): 73.9%
- RFU (mean ± SD) of lung homogenate (LOX-GFP-LM cells; 5 mg/kg po, Day −1-23, lungs at day 25): 12738540 ± 5426672 RFU
- ILS % (increased lifetime-span) (LOX-GFP-LM cells; 5 mg/kg po, Day −1-d7): 4.2%
- 50% survival days (LOX-GFP-LM cells; 5 mg/kg po, Day −1-d7, Vehicle 24 days): 25 days
- ILS % (increased lifetime-span) (LOX-GFP-LM cells; 5 mg/kg po, Day −1-d23): 16.7%
- 50% survival days (LOX-GFP-LM cells; 5 mg/kg po, Day −1-d23, Vehicle 24 days): 28 days
- anti-metastatic activity as assessed by fluorescence intensity of lung homogenates (LOX-GFP-LM cells; late intervention (Dosed Day 3 through 23) vs full length intervention (Day −1 through 23)): equivalent anti-metastatic activity

SMILES: CC(=O)O[C@H]1C(=O)[C@@]2(C)[C@H]([C@H](OC(=O)c3ccccc3)[C@]3(O)C[C@H](OC(=O)[C@H](O)[C@@H](NC(=O)c4ccccc4)c4ccccc4)C(C)=C1C3(C)C)[C@]1(OC(C)=O)CO[C@@H]1C[C@@H]2O [Taxol, reference compound]
- LOX-GFP ascites cell growth (LOX-GFP cells; Taxol 10 mg/kg iv, 2 doses (Days 5 & 6), ascites harvest Day 7): reduced cell growth
- LOX-GFP ascites cell growth (LOX-GFP cells; Taxol 10 mg/kg iv, 3 doses (Days 4, 5 & 6), ascites harvest Day 7): reduced cell growth maximally
- LOX-GFP ascites cell growth (LOX-GFP cells; Taxol 10 mg/kg iv, single dose (Day 6), ascites harvest Day 7): did not inhibit cell growth
